Laboratory results published in PMC6255377, “New 1-Aryl-3-Substituted Propanol Derivatives as Antimalarial Agents” (Molecules, 2009).
Structures can show the parent of a compound that is named as a salt. Where two headings read alike, the source gives them in different places.

Columns and labels:
[1] = system: P. falciparum 3D7 strain, chloroquine sensitive; assay: In vitro antimalarial activity screening (SYBR Green I micromethod); format: cell-based; conditions: Plasmodium falciparum, read-out: P. falciparum 3D7 IC50
Description: The SYBR^©GreenI-based micromethod was followed for testing the antimalarial activity of the compounds. Erythrocytic stages of P. falciparum 3D7 strain, chloroquine sensitive, were maintained in RPMI 1640 culture medium supplemented with 0.5% Albumax II at 37 °C in an atmosphere with 5% CO2. […] Next, stock solutions of each compound were prepared in DMSO and diluted in RPMI medium in order to obtain concentrations from 10 to 0.01 µg/mL. […] All compounds and controls were placed in triplicate. The plate was incubated under the same conditions. After 48 h, the plate was removed from the incubator and frozen for at least 1 h at -70 °C and then thawed. Finally, 100 µL of SYBR^©GreenI in lysis buffer (0.2 µL/mL) was added per well and shaken for 5 minutes or until no precipitated erythrocytes were observed. The plate was left to stand in the dark for 1 h at room temperature. Fluorescence intensity (FI) for each well was measured. The background of the nonparasitized erythrocytes was subtracted from each well tested.

[2] = system: P. berghei ANKA strain; format: in vivo; conditions: for GIP of P. bergei (growth inhibition percentage): 10 mg/kg/day, positive control; for appearance / toxicity in treated mice: in vivo
Description: The in vivo antimalarial activity of the compounds was measured by the classical 4-day suppressive test. Briefly, on day 0, groups of five NMRI male mice, weighing 20 ± 2 g each, were inoculated with 2 × 10^7 red blood cells RBCs infected by erythrocytic stages of rodent malaria parasite P. berghei ANKA strain. Two hours later, each group of mice was treated intraperitoneally with a dose of 50 mg/kg of the selected compound, previously prepared in DMSO. Treatment was continued from day 1 to day 3, always at similar times. On day 4, Giemsa-stained thin blood smears from the tail of the mice were prepared and microscopically examined with 1,000× magnification. The mean of the parasitemia of each group was calculated in a total of 1,000 RBCs, and the growth inhibition percentage of parasite was estimated in relation to the control group, which received only the solvent of the products. % inhibition = [(Par control – Par comp)/(Par control)] × 100

[3] = system: ferriprotoporphyrin IX biomineralization; parameters: method as in PMID 12128052; conditions: read-out: IC50 in the FBIT test; cited from earlier work
[4] = system: Murine J774 macrophages; assay: Nonspecific cytotoxicity test (MTT); format: cell-based; conditions: 10 µg/mL, 24 h exposure
Description: Murine J774 macrophages were maintained in RPMI 1640 medium supplemented with 10% FBS at 37 °C in a 5% CO2 atmosphere. First, in a flat bottom 96-well microplate, 100 µL of macrophage suspension in RPMI medium, containing 5 × 10^4 cells, were distributed per well. The cells were allowed to attach for 24 h at 37 °C. Next, the medium was replaced by different concentrations of the compounds in 200 µL of medium, or DMSO at the same concentration as growth control, and the cells were exposed to the compounds solutions for another 24 h. Each concentration was assayed three times. Afterwards, the medium was eliminated and 100 µL/well of 3-(4,5-dimethythiazol-2-yl)-2,5-diphenyltetrazolium bromide (MTT) solution, 0.4 mg/mL in PBS, was added and the plates were returned to incubator for 1 h. The suspension was removed and the toxic effect of the compounds was assessed by the reduction of MTT to formazan crystals (as a cell viability indicator); said crystals were solubilized by adding 100 µL of DMSO. Finally, the optical density (OD) was measured at 595 nm and the toxicity percentage was calculated as follows:% toxicity = [(O.D.control - O.D.comp)/(O.D.control)] × 100

[5] = 3D7, Table 2, 48 h incubation, mean of two experiments in triplicate
[6] = 3D7, Table 1, 48 h incubation, mean of two experiments in triplicate

Structure (SMILES)	melting point [°C]	IC50 [1, 6] [nM]	other results
COc1ccccc1N1CCN(CCC(O)c2c[nH]c3ccccc23)CC1 (stereo not drawn) [Compound 41, 1-(3-Indolyl)-3-[4-(2-methoxyphenyl)piperazin-1-yl]propan-1-ol]	188 to 189		IC50 [1, 5]: > 20000 nM
O=C(CCNC1CCN(c2ccc([N+](=O)[O-])cc2)CC1)c1csc2ccccc12 [Compound 8, 1-(Benzo[b]thiophen-3-yl)-3-[1-(4-nitrophenyl)piperidin-4-ylamino]propan-1-one]	144 to 145	> 20000	
CCN(CC)CCCC(C)Nc1ccnc2cc(Cl)ccc12 (stereo not drawn) [Chloroq., Chloroquine, reference compound]			IC50 ([1]; 3D7, 48 h): 80 nM; GIP of P. bergei (growth inhibition percentage) ([2]; four-day treatment, NMRI male mice): 100% at 10 mg/kg; GIP of P. bergei (growth inhibition percentage) ([2]; four-day treatment, NMRI male mice, listed as chloroquine): GIP = Growth inhibition percentage of the rodent malaria parasite after a four-day treatment. 10 mg/kg/day of chloroquine, positive control, inhibited 100% the growth parasite. ^a Toxic = death of more than half of the animals in the tested group.
O=[N+]([O-])c1ccc(N2CCCN(CCC(O)c3csc4ccccc34)CC2)cc1 (stereo not drawn) [Compound 34, 1-(Benzo[b]thiophen-3-yl)-3-(4-(4-nitrophenyl)-1,4-diazepan-1-yl)propan-1-ol]	47 to 48	3430	
OC(CCN1CCN(c2cnc3ccccc3n2)CC1)c1csc2ccccc12 (stereo not drawn) [Compound 35, 1-(Benzo[b]thiophen-3-yl)-3-(4-(quinoxalin-2-yl)piperazin-1-yl)propan-1-ol]	155 to 156	620	
Cc1ccc2cccc(N3CCN(CCC(O)c4csc5ccc(F)cc45)CC3)c2n1 (stereo not drawn) [Compound 23]		380	appearance / toxicity in treated mice [2]: looked unhealthy and showed clear evidence of weight loss
O=[N+]([O-])c1ccc(N2CCN(CCC(O)c3csc4ccc(F)cc34)CC2)cc1 (stereo not drawn) [Compound 32, 1-(5-Fluorobenzo[b]thiophen-3-yl)-3-[4-(4-nitrophenyl)piperazin-1-yl]propan-1-ol]	189 to 190	> 20000	
COc1ccccc1N1CCN(CCC(O)c2ccc(-c3ccccc3)cc2)CC1 (stereo not drawn) [Compound 40, 1-(4-Phenyl)phenyl-3-[4-(2-methoxyphenyl)piperazin-1-yl]propan-1-ol]	109 to 110		IC50 [1, 5]: 14600 nM
OC(CCN1CCN(c2cccc3ccccc23)CC1)c1csc2ccc(F)cc12 (stereo not drawn) [Compound 12]		160	appearance / toxicity in treated mice [2]: the appearance of the mice was good
O=C(CCN1CCN(c2cnc3ccccc3n2)CC1)c1csc2ccccc12 [Compound 10, 1-(Benzo[b]thiophen-3-yl)-3-[4-(quinoxalin-2-yl)piperazin-1-yl]propan-1-one]	145 to 146	> 20000	
C=C[C@H]1C[N@@]2CC[C@H]1C[C@H]2[C@H](O)c1ccnc2ccc(OC)cc12 [quinine]			IC50 [3]: 324000 nM
O=[N+]([O-])c1ccc(N[C@@H]2CCN(CCC(O)c3csc4ccccc34)C2)c(C(F)(F)F)c1 (stereo partly drawn) [Compound 29, 1-(Benzo[b]thiophen-3-yl)-3-[3-(4-nitro-2-trifluoromethylphenylamino)-(R)-pyrrolidin-1-yl]propan-1-ol]	48 to 50	2990	
O=[N+]([O-])c1ccc(N2CCC(NCCC(O)c3csc4ccccc34)CC2)c(C(F)(F)F)c1 (stereo not drawn) [Compound 31, 1-(Benzo[b]thiophen-3-yl)-3-[1-(4-nitro-2-trifluoromethylphenyl)piperidin-4-ylamino]propan-1-ol]		190	cytotoxicity on murine macrophages J774 [4]: showed toxicity; GIP of P. bergei at 50 mg/kg/day (growth inhibition percentage) ([2]; 50 mg/kg/day intraperitoneally, four-day treatment, NMRI male mice): Toxic; appearance / toxicity in treated mice ([2]; male, NMRI, mouse, 4 days): cytotoxicity of compound 31 was confirmed in the in vivo test
O=C(CCN1CCN(c2ccc([N+](=O)[O-])cc2C(F)(F)F)CC1)c1csc2ccccc12 [Compound 6, 1-(Benzo[b]thiophen-3-yl)-3-[4-(4-nitro-2-trifluoromethylphenyl)piperazin-1-yl]propan-1-ona]	140 to 141	> 20000	
COc1ccccc1N1CCN(CCC(O)c2csc3ccc(F)cc23)CC1 (stereo not drawn) [Compound 15]		330	appearance / toxicity in treated mice [2]: looked unhealthy and showed clear evidence of weight loss
OC(CCN1CCN(c2ccc(Cl)cc2)CC1)c1ccc(-c2ccccc2)cc1 (stereo not drawn) [Compound 38, 1-(4-Phenyl)phenyl-3-[4-(4-chlorophenyl)piperazin-1-yl]propan-1-ol]	169 to 170		IC50 [1, 5]: > 20000 nM
O=[N+]([O-])c1ccc([C@@]2(NCCC(O)c3ccc4ccccc4c3)CCNC2)c(C(F)(F)F)c1 (stereo partly drawn) (as salt: hydrochloride) [Compound 45, 1-(2-naphthyl)-3-[3-(4-nitro-2-trifluoromethylphenyl)-(S)-pyrrolidin-3-ylamino]-propan-1-ol]	181 to 183		
O=[N+]([O-])c1ccc(N2CC[C@H](NCCC(O)c3csc4ccccc34)C2)c(C(F)(F)F)c1 (stereo partly drawn) [Compound 30, 1-(Benzo[b]thiophen-3-yl)-3-[1-(4-nitro-2-trifluoromethylphenyl)-(S)-pyrrolidin-3-ylamino]propan-1-ol]	109 to 110	970	
O=C(CCN1CC[C@@H](Nc2ccc([N+](=O)[O-])cc2C(F)(F)F)C1)c1csc2ccccc12 [Compound 7, 1-(Benzo[b]thiophen-3-yl)-3-[3-(4-nitro-2-trifluoromethylphenylamino)-(R)-pyrrolidin-1-yl] propan-1-one]	98 to 100	> 20000	
COc1ccccc1N1CCN(CCC(O)c2ccc3cc(C)ccc3c2)CC1 (stereo not drawn) (as salt: hydrochloride) [Compound 44, 1-(6-methylnapth-2-yl)-3-[4-(2-methoxyphenyl)piperazin-1-yl]propan-1-ol]	116 to 117		
O=[N+]([O-])c1ccc(N2CCC(NCCC(O)c3csc4ccccc34)CC2)cc1 (stereo not drawn) [Compound 33, 1-(Benzo[b]thiophen-3-yl)-3-(1-(4-nitrophenyl)piperidin-4-ylamino)propan-1-ol]	153 to 155	1000	
COc1cccc(N2CCN(CCC(O)c3csc4ccc(F)cc34)CC2)c1 (stereo not drawn) (as salt: hydrochloride) [Compound 16, 1-(5-fluorobenzo[b]thiophen-3-yl)-3-[4-(3-methoxyphenyl)piperazin-1-yl]propan-1-ol]	135 to 137		
O=[N+]([O-])c1ccc(N2CCN(CCC(O)c3csc4ccccc34)CC2)c(C(F)(F)F)c1 (stereo not drawn) [Compound 28, 1-(Benzo[b]thiophen-3-yl)-3-[4-(4-nitro-2-trifluoromethylphenyl)piperazin-1-yl]propan-1-ol]	154 to 155	680	
